Laboratory results as given in paper PMC7614687, “Modulation of the substrate specificity of the kinase PDK1 by distinct conformations of the full-length protein*” (Science signaling, 2023).

Legend:
[1] = target: T1, PDK1_50-359 (Homo sapiens, UniProt O15530); assay: Differential scanning fluorimetry, thermal stability of PDK1_50-359 (catalytic domain); assay type: binding
T1 construct: His (N); made in house; host or cells: insect cells (stated for the crystallography batch)
T1 sequence (O15530 50-359): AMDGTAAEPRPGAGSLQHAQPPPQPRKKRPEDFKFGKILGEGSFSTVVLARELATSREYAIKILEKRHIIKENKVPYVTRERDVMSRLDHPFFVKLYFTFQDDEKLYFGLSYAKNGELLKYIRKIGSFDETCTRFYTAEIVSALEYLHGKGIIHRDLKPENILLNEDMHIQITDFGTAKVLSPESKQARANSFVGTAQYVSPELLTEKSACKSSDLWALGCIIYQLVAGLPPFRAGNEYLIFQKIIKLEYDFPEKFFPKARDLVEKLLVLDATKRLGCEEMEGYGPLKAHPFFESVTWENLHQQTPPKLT
Procedure: The thermal stability of PDK1 was assessed by monitoring the unfolding of PDK1 by the increase in the fluorescence of SYPRO Orange (Invitrogen) using a real-time PCR device (StepOnePlus, Applied Biosystems and BioRad CFX96) following a previously described protocol ([70]). The reactions were performed in a final volume of 10 μl in white 96-well PCR microtiter plates (Greiner) and contained 1 μM PDK1, 10 mM HEPES (pH 7.5), 150 mM NaCl, 1/1000 SYPRO Orange and 1 mM dithiothreitol. For valsartan, the assay buffer was modified to exclude NaCl. PIFtide or compounds (at a final DMSO concentration of 1%) were added to this reaction mixture. The temperature gradient was performed in steps of 0.3 °C in the range from 25 to 70 °C. To calculate the Tm values, data were exported to GraphPad Prism and curves fitted to a Boltzmann sigmoidal equation with an acceptable confidence interval of 95%. Statistical analysis was performed with Infostat software (http://www.infostat.com.ar) and GraphPad Prism by first verifying a normal distribution of pooled residuals (Shapiro-Wilks test) and homogeneity of variance (F test), and then performing a one-way ANOVA followed by the post hoc comparisons test indicated in each figure legend.

[2] = target: T2, SNAP-PDK1 (Homo sapiens, UniProt O15530); assay: STORM-based single particle fluorescence of PDK1 monomers and dimers; conditions: 15 μM HYG8
T2 construct: SNAP-PDK1_50-556 (15 μM, in buffer Tris-HCl 50 mM pH 7.4); His (N); made in house; host or cells: insect cells
T2 sequence (O15530 50-556): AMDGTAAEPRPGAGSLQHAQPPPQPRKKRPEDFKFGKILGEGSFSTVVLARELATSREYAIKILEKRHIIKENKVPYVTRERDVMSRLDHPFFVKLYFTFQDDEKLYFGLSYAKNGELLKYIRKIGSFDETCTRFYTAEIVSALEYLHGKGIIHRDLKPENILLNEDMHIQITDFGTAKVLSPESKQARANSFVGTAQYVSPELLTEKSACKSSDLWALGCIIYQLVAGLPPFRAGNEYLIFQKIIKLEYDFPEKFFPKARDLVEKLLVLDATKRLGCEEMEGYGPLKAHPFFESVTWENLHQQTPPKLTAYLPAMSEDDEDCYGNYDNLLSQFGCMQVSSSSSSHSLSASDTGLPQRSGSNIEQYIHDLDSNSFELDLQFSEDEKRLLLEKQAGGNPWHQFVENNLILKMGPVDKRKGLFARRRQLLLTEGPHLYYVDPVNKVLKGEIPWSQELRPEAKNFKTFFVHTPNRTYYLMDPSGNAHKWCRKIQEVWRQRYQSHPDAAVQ
Procedure: SNAP-PDK1_50-556 (15 μM, in buffer Tris-HCl 50 mM pH 7.4, 200 mM NaCl, 200 mM imidazole and 1 mM DTT) was incubated with SNAP-Cell TMR-Star substrate (NEB) (30 μM) in the dark at room temperature for 1 h. Labelled SNAP-PDK1 was isolated by gel filtration using a PD MidiTrap G-25 Sephadex Column (GE). 10 μl labelled TMR-SNAP-PDK1 was diluted in buffer 50 mM Tris-HCl 50 mM pH 7.4 containing 100 mM NaCl and 1 mM DTT (control) or in the same buffer containing 15 μM HYG8 in a final volume of 20 μl. […] The slides were analysed using stochastic optical reconstruction microscopy (STORM) technology. Fluorescence from monomers was differentiated from that from dimers by the intensity of the fluorescence signals. […]
The STORM microscope used was custom-built around an OlympusIX-73 inverted microscope, as described previously ([96]). A 532 nm 1.5 W laser (Laser Quantum Ventus 532) was used for fluorescence excitation of TMR-Star. […] Images were recorded by an EMCCD camera (Andor iXon3 897). […] After calibration, the parameters selected in the STORM’s software were: shape, two color 120X; view, single; horizontal readout rate, 5.0 MHz; speed, 3.3 μs; clock voltage, normal; frame transfer mode, (select); set exposure time, 100 ms, real exposure time, 100 ms; real accumulation time, 102 ms; effective frame rate, 9.38 Hz; pre amplifier gain 5.1; electron multiplier gain, 30; laser power, 5 mW. […]

effect on thermal stability of PDK1_50-359 (catalytic domain) [1]: without affecting | effect on proportion of PDK1 dimers [2]: decreased the proportion of PDK1 dimers
SMILES: O=C(O[C@H]1[C@@H](OP(=O)(O)O)[C@H](OP(=O)(O)O)[C@@H](OP(=O)(O)O)[C@H](OP(=O)(O)O)[C@H]1OP(=O)(O)O)c1ccccc1 [HYG8, 2-O-benzoyl-IP5]
